According to paper doi:10.1101/623967v1 (bioRxiv, 2019):

Experiments:
Assay type in all cases: physicochemical
[1] = pKFI determination: tryptophan fluorescence pH titration with PS in the vesicles; conditions: for PS50 (amount of PS needed to reach 50% of change in pKFI): hyperbolic fit (Eq. 2) of pKFI versus molar percent POPS, 0-20%
[2] = Tryptophan fluorescence emission spectra at acidic and basic pH; conditions: POPC, Trp fluorescence, λex 280 nm
[3] = pKFI determination: tryptophan fluorescence pH titration; conditions: lipid:peptide 150:1; for pKFI in the presence of NaCl: 150 mM NaCl, POPC and POPC/POPS (9/1) gave similar pKFI; for effect of 150 mM NaCl on the pKFI: POPC vesicles, compared with no NaCl, result in words
[4] = Tryptophan fluorescence emission spectra at acidic and basic pH; conditions: POPC/POPS (9/1), Trp fluorescence, λex 280 nm
[5] = POPC/POPS vesicles, PS 0-20 mol%, lipid:peptide 200:1, 1 μM peptide

Sequence	increase in the pKFI caused by PS [1, 5]	PS50 (amount of PS needed to reach 50% of change in pKFI) [1]	Fluorescence spectral maxima ([2]; acidic pH (pH 4))	Fluorescence spectral maxima ([2]; basic pH (pH 8))	pKFI in the presence of NaCl [3]	effect of 150 mM NaCl on the pKFI [3]	Fluorescence spectral maxima ([4]; acidic pH (pH 4))	Fluorescence spectral maxima ([4]; basic pH (pH 8))	effect of PS on the pKFI ([1]; POPC/POPS vesicles, seven PS levels between 0-20%, result in words)	decrease in the pKFI caused by PS [1, 5]
GKAGKAGLLGLEGLLGLPLGLLEGLWLGLELEGN [K2-ATRAM]	~0.4 pH units	1.9 % PS	329.7 ± 1.2 nm	342.1 ± 2.1 nm	~5.4	no change	320.2 ± 1.7 nm	331.7 ± 1.8 nm	–	–
GLAGLAGLLGLEGLLGLPLGLLEGLWLGLELEGN [ATRAM, acidity-triggered rational membrane (ATRAM) peptide]	–	–	327.3 ± 0.7 nm	341.1 ± 2.3 nm	~5.7	decreased	330.8 ± 0.8 nm	350.9 ± 1.0 nm	not significantly affected	–
GYAGLAGLLGLEGLLGLPLGLLEGLWLGLELEGN [Y-ATRAM]	–	0.5 % PS	324.5 ± 2.9 nm	343.9 ± 3.6 nm	~5.7	decrease	320.5 ± 1.9 nm	342.7 ± 2.3 nm	–	~0.3 pH units
